We go through three compounds from patent US11547681B2, “N-acylethanolamide derivatives and uses thereof” (ELIEM THERAPEUTICS, INC., priority 2016, dated 2023).

Data set [1] can be described thus: in vitro. The conditions noted are these: both, human; for Concentration (μM) of analyte PEA, 0 min / Concentration (μM) of analyte PEA, 10 min / Concentration (μM) of analyte PEA, 20 min / Concentration (μM) of analyte PEA, 30 min / Concentration (μM) of analyte PEA, 60 min / % Remaining of Initial (n = 1), 0 min / % Remaining of Initial (n = 1), 10 min / % Remaining of Initial (n = 1), 20 min / % Remaining of Initial (n = 1), 30 min / % Remaining of Initial (n = 1), 60 min / Measured concentration of PEA (analyte) / % Remaining of Initial: 1 μM. As to the method:
The reaction mixture, minus cofactors, was prepared as described below. The test article was added into the reaction mixture at a final concentration of 1 μM. […] An aliquot of the reaction mixture (without cofactor cocktail) was equilibrated in a shaking water bath at 37° C. for 3 minutes. The reaction was initiated by the addition of cofactor cocktail, and the mixture was incubated in a shaking water bath at 37° C. Aliquots (100 μL) were withdrawn at 0, 10, 20, 30, and 60 minutes. All samples were immediately combined with 400 uL of icecold 50/50 acetonitrile/H2O containing 0.1% formic acid and internal standard to terminate the reaction. The samples were then mixed and centrifuged to precipitate proteins. Calibration standards were prepared in matched matrix. All samples and standards were assayed by LC-MS/MS using electrospray ionization for both the dosed prodrug I-9 and the expected drug (PEA). Analytical conditions are outlined in Appendix 4-1. The test article concentration at each time point was compared to the test article concentration at time 0 to determine the percent remaining at each time point. Half-lives were calculated using GraphPad software, fitting to single-phase exponential decay equation.
(§1) Reaction mixture, minus cofactors, was prepared as described below. Test article was added into the reaction mixture at a final concentration of 1 μM. […] An aliquot of the reaction mixture (without cofactor cocktail) was equilibrated in a shaking water bath at 37° C. for 3 minutes. The reaction was initiated by the addition of cofactor cocktail, and the mixture was incubated in a shaking water bath at 37° C. Aliquots (100 μL) were withdrawn at 0, 10, 20, 30, and 60 minutes. Test article samples were immediately combined with 300 μL of ice-cold acetonitrile containing 1% formic acid. Control samples were immediately combined with 400 μL of ice-cold 50/50 acetonitrile (ACN)/dH2O containing 0.1% formic acid and internal standard to terminate the reaction. Samples were then mixed and centrifuged to precipitate proteins. Calibration standards were prepared in matched matrix. Samples and standards were assayed by LC-MS/MS using electrospray ionization for both the dosed prodrug and the expected drug (PEA). Analytical conditions are outlined in Appendix 8-1. Test article concentration at each time point was compared to test article concentration at time 0 to determine the percent remaining at each time point. Halflives were calculated using GraphPad software, fitting to a single-phase exponential decay equation.
as §1, with “for 5” for “for 3”, “minutes. Reaction” for “minutes. The reaction”, “and” for “and the”, “both” for “both the”, “Appendix 10-1.” for “Appendix 8-1.”
Reaction mixture, minus cofactors, was prepared as described below.

Data set [2] in a line: Plasma stability (37° C., pH 7.4), human. The conditions noted are these: for half-life at 1 μM: both sexes, human, plasma, pH 7.4, human plasma; for % Remaining of Initial (n = 1), 0 min / % Remaining of Initial (n = 1), 15 min / % Remaining of Initial (n = 1), 30 min / % Remaining of Initial (n = 1), 60 min / % Remaining of Initial (n = 1), 120 min / % Remaining of Initial: human plasma; for % Remaining of Initial (n = 1), 0 min: pH 7.4, 0 min; for % Remaining of Initial (n = 1), 15 min: pH 7.4, 15 min; for % Remaining of Initial (n = 1), 30 min: pH 7.4, 30 min; for % Remaining of Initial (n = 1), 60 min: pH 7.4, 60 min; for % Remaining of Initial (n = 1), 120 min: pH 7.4, 120 min; for % Remaining of Initial: 1 μM, n = 1. It counts as in vitro ADME. As to the method:
(§2) Studies were carried out in mixed-gender human plasma (Lot #GLP530-5), male Sprague-Dawley rat (Lot #RAT297944, RAT313140), male CD-1 mouse (Lot #MSE237700), and male Beagle dog (Lot #BGL87670, BGL82614), collected on sodium heparin. Plasma was adjusted to pH 7.4 prior to initiating the experiments. DMSO stocks were first prepared for the test articles. Aliquots of the DMSO solutions were dosed into 700 μL of plasma, which had been pre-warmed to 37° C., at a final test article concentration of 1 μM. […] Samples were stored at 4° C. until the end of the experiment. After the final time point was sampled, the plate was mixed and then centrifuged at 3,000 rpm for 10 minutes. Calibration standards were prepared in matched matrix. […] Analytical conditions are outlined in Appendix 8-1.
as §2, with “#AS1650-2),” for “#GLP530-5),”, “#RAT297944),” for “#RAT297944, RAT313140),”, “CD-I” for “CD-1”, “#BGL91384),” for “#BGL87670, BGL82614),”, “10-1.” for “8-1.”
Studies were carried out in mixed-gender human plasma (Lot #AS1650-2), male Sprague-Dawley rat (Lot #RAT297944), male CD-1 mouse (Lot #MSE237700), and male Beagle dog (Lot #BGL91384), collected on sodium heparin. Plasma was adjusted to pH 7.4 prior to initiating the experiments. DMSO stocks were first prepared for test articles. […] Samples were stored at 4° C. until the end of experiment. After the final time point was sampled, the plate was mixed and then centrifuged at 3,000 rpm for 10 minutes. Calibration standards were prepared in matched matrix. […] Analytical conditions are outlined in Appendix 13-1.
Studies were carried out in mixed-gender human plasma (Lot #AS 1650-2), male Sprague-Dawley rat (Lot #RAT320835), male CD-1 mouse (Lot #MSE260693), and 6 male Beagle dog (Lot #BGL91384), on sodium heparin. Plasma was adjusted to pH 7.4 prior to initiating the experiments. DMSO stocks were first prepared for the test articles. Aliquots of the DMSO solutions were dosed into 700 μL of plasma, which had been pre-warmed to 37° C., at a final test article concentration of 1 μM. […] Samples were stored at 4° C. until the end of the experiment. After the final time point was sampled, the plate was mixed and then centrifuged at 3,000 rpm for 10 minutes. Calibration standards were prepared in matched matrix. […] Analytical conditions are outlined in Appendix 17-1.

Where [3] appears, read: test article 1 μM, 37° C., pH 7.4, read-out: Half-life.

The microsomal CLint is the rate of metabolic loss divided by the concentration. Broadly, the half-life is the time needed for the level to fall by half in the phase considered. With `CCCCC/C=C\C/C=C\CCCCCCCC(=O)OCCNC(=O)CCCCCCCCCCCCCCC` [Compound I-6], the “Concentration (μM) of analyte PEA, 0 min” value in data set [1] (0 min) is 0.0089 µM. In addition, the “Concentration (μM) of analyte PEA, 10 min” value in data set [1] (10 min) is 0.023 µM. The “Concentration (μM) of analyte PEA, 20 min” value in data set [1] (20 min) was 0.043 µM. For the same compound, the “Concentration (μM) of analyte PEA, 30 min” value in data set [1] (30 min) came out at 0.056 µM. Further, the “Concentration (μM) of analyte PEA, 60 min” value in data set [1] (60 min) was found to be 0.072 µM. Moreover, the “% Remaining of Initial (n = 1), 0 min” value in data set [1] (s9, 0 h) was 100%; in data set [2] (test article 1 μM, 37° C.) it was 100%. The “% Remaining of Initial (n = 1), 10 min” value in data set [1] (s9, 10 min) was 109%. The “% Remaining of Initial (n = 1), 20 min” value in data set [1] (s9, 20 min) turned out to be 103%. The “% Remaining of Initial (n = 1), 30 min” value is reported as 82% in data set [1] (s9, 0.5 h) and 102% in data set [2] (test article 1 μM, 37° C.). Also, the “% Remaining of Initial (n = 1), 60 min” value in data set [1] (s9, 1 h) came to 70%; in data set [2] (test article 1 μM, 37° C.), 74%. Besides, the microsomal CLint at 1 μM in data set [1] (s9, CLint (mL/min/mg protein)) was less than 11.6 µL/min/mg; in data set [1] (s9, CLint (mL/min/mg protein), calculated value in parentheses), 6.82 µL/min/mg. Besides, the half-life at 1 μM was more than 60 min in data set [1] (s9, Half-life (min)); 102 min in data set [1] (s9, Half-life (min), calculated half-life in parentheses); more than 120 min in data set [2] (setting [3]); 147 min in data set [2] (calculated value beyond duration of experiment, read-out: Half-life (min), calculated half-life in parentheses). Moreover, in data set [2] (test article 1 μM, 37° C.), the “% Remaining of Initial (n = 1), 15 min” value was 79%. The “% Remaining of Initial (n = 1), 120 min” value in data set [2] (test article 1 μM, 37° C.) turned out to be 53%.
On to `CCCCCCCCCCCCCCCC(=O)NCCOC(=O)CCC(=O)OC[C@H]1O[C@@](CO)(O[C@H]2O[C@H](CO)[C@@H](O)[C@H](O)[C@H]2O)[C@@H](O)[C@@H]1O` [Compound I-7], for which, in data set [1] (0 min), the “Concentration (μM) of analyte PEA, 0 min” value is 0.090 µM. Moreover, the “Concentration (μM) of analyte PEA, 10 min” value in data set [1] (10 min) was 0.46 µM. For the same compound, the “Concentration (μM) of analyte PEA, 20 min” value in data set [1] (20 min) was determined as 0.62 µM. The “Concentration (μM) of analyte PEA, 30 min” value in data set [1] (30 min) amounted to 0.63 µM. Besides, the “Concentration (μM) of analyte PEA, 60 min” value in data set [1] (60 min) came out at 0.48 µM. For the same compound, in data set [1] (s9, 0 h), the “% Remaining of Initial (n = 1), 0 min” value is listed as 100%. Besides, in data set [1] (s9, 10 min), the “% Remaining of Initial (n = 1), 10 min” value is 46%. The “% Remaining of Initial (n = 1), 20 min” value in data set [1] (s9, 20 min) amounted to 22%. The “% Remaining of Initial (n = 1), 30 min” value in data set [1] (s9, 0.5 h) amounted to 9.8%. Moreover, the “% Remaining of Initial (n = 1), 60 min” value in data set [1] (s9, 1 h) is reported as 3.8%. Also, in data set [2] (setting [3]), the half-life at 1 μM was less than 1 min. In data set [2] (test article 1 μM, 37° C.), the “% Remaining of Initial (n = 1), 0 min” value is on record as 100%; the “% Remaining of Initial (n = 1), 15 min” value was less than 1.0%; the “% Remaining of Initial (n = 1), 30 min” value is less than 1.0%; the “% Remaining of Initial (n = 1), 60 min” value is reported as less than 1.0%. Also, the “% Remaining of Initial (n = 1), 120 min” value in data set [2] (test article 1 μM, 37° C.) is less than 1.0%.
Regarding `CCCCCCCCCCCCCCCC(=O)NCCOC(=O)CCC(=O)OC(CO)CO` [Compound I-8], the “Measured concentration of PEA (analyte)” value in data set [1] (0 min) came out at 0.021 µM; in data set [1] (10 min), 0.32 µM; in data set [1] (20 min), 0.39 µM; in data set [1] (30 min) it was 0.38 µM; in data set [1] (60 min), 0.38 µM. In addition, the “% Remaining of Initial” value in data set [1] (s9, 0 h) is 100%; in data set [1] (s9, 10 min), 31%; in data set [1] (s9, 20 min), 7.0%; in data set [1] (s9, 0.5 h) it was 1.8%; in data set [1] (s9, 1 h), less than 1.0%; in data set [2] (0 min), 100%. Moreover, the “% Remaining of Initial” value in data set [2] (15 min), in data set [2] (30 min), in data set [2] (60 min) and in data set [2] (120 min) was less than 1.0% throughout. In data set [1] (s9, CLint), the microsomal CLint at 1 μM was more than 69.3 µL/min/mg. Moreover, the half-life at 1 μM in data set [1] (s9, Half-life) is less than 10 min; in data set [2] (read-out: Half-life) it was less than 1 min.
